In article PMC4501059, “Responding to the challenge of untreatable gonorrhea: ETX0914, a first-in-class agent with a distinct mechanism-of-action against bacterial Type II topoisomerases” (Scientific Reports, 2015):
In brackets after ≈: the same amount, converted by molar mass. Several values for one entry are separate records, joined by “and”; a condition that tells them apart may be missing. Identical values can stand only once. Like-named read-outs stand apart in the source and are kept apart here.

Tests used:
N. gonorrhoeae ATCC49226 = assay: MIC (CLSI agar dilution); assay type: cell-based
[1] = system: N. gonorrhoeae ARC4676 (QR); assay type: cell-based
Dog pharmacokinetics = assay type: in vivo, Beagle dog
Experimental: (§1) AZD0914 was analyzed in mouse, rat, dog, monkey plasma using a qualified method which was later validated for human plasma analysis. The validated human method is described below and is representative of the approach taken in other species. AZD0914 was determined in human plasma prepared with K2EDTA as an anticoagulant. AZD0914 and an internal standard (^13C2, ^15N2 AZD0914) were extracted from plasma with tert- butyl methyl ether. After evaporating to dryness under a stream of nitrogen, the residue was reconstituted and quantitated by reverse phase HPLC-MS/MS against a standard curve from 1.00 to 5000 ng/ml. Separation was achieved using a gradient which went from 55% to 85% methanol:acetonitrile (1:1) containing 0.2% formic acid as mobile phase B and 0.2% formic acid in water as mobile phase A at a flow rate of 0.60 ml/min through a Phenomonex Gemini C18 column (50 x 2.0 mm column, […]) heated using a Shimadzu CTO-20AC set to 40 °C. AZD0914 was detected in multiple reaction monitoring (MRM) mode by positive ion electrospray ionization using a Sciex API5500 (Toronto, Canada) mass spectrometer. The ion spray voltage was set to 5500 V and turboionspray temperature was 650 °C. AZD0914 was quantitated using the MRM transition 488.2 → 348.2 using a collision energy of 29 eV. The internal standard, (^13C2, ^15N2 AZD0914), was monitored using identical conditions except for the MRM transition of 492.2 → 348.2.

[2] = system: mammalian erythroid cell lines; assay: erythroid cytotoxicity (growth inhibition); assay type: cell-based; settings: read-out: Erythroid IC50
Experimental: In vitro toxicology. Experiments for assessing micronuclei in mouse lymphoma cells^19 myeloid cytotoxicity^20 and erythroid cytotoxicity^21 were performed as described previously.

[3] = hepatocyte intrinsic clearance; assay type: in vitro ADME; settings: female, CD-1, mouse hepatocytes
Description: Supplement srep11827-s1.doc, table 4 | column: CD-1 mouse (female)

[4] = Single dose pharmacokinetics, mouse; assay type: in vivo, CD-1 mouse
Experimental: as §1

[5] = Single dose pharmacokinetics, monkey; assay type: in vivo; settings: plasma, Cynomologus monkey (male)
Experimental: as §1

[6] = plasma protein binding, rat; assay type: in vitro ADME; settings: in vitro at 1-50 µM
Description: Supplement srep11827-s1.doc, table 4 | column: Han-Wister rat (male)

[7] = plasma protein binding, dog; assay type: in vitro ADME; settings: in vitro at 1-50 µM
Description: Supplement srep11827-s1.doc, table 4 | column: Beagle dog (male)

USA100 NRS382 = assay: MIC (modal, CLSI broth microdilution); assay type: cell-based, S. aureus; settings: Staphylococcus aureus, read-out: Modal MIC
S. aureus DNA gyrase = S. aureus DNA gyrase (Staphylococcus aureus, UniProt P0A0K8+P20831); settings: free Mg2+ 0.06 μM to 8 mM
Experimental: Reactions were quenched by adding 3 μl of 2% SDS and 1 mg/ml proteinase K (30 min at 37 °C). DNA loading dye (4 μl) was added and DNA products were quantified by gel electrophoresis. Samples (25 μl) were loaded into wells of 1% agarose gels buffered with 40 mM Tris, 20 mM acetic acid, and 1 mM EDTA at pH 8.4 and run for 18 to 20 hours at 30V, or 3 hours at 60V including 1 µg/ml ethidium bromide in gel running buffer. DNA bands from gel electrophoresis were visualized by staining with ethidium bromide (5 µg/ml in TAE) after electrophoresis. DNA was quantified from digital images acquired during UV transillumination using AlphaEase software (Genetic Technologies). Background from control wells without inhibitor was subtracted.

Staphylococcus aureus = settings: cited from earlier work
Streptococcus agalactiae = system: Streptococcus agalactiae; parameters: method as in ref 2 (supplement); settings: 441 tested; ref 2 (supplement); cited from earlier work
Streptococcus pneumoniae = system: Streptococcus pneumoniae; parameters: method as in ref 2 (supplement); settings: 2324 tested; ref 2 (supplement); cited from earlier work
Moraxella catarrhalis = system: Moraxella catarrhalis; parameters: method as in ref 2 (supplement); settings: 145 tested; ref 2 (supplement); cited from earlier work
S. aureus = settings: 4X MIC, various strains; cited from earlier work
[8] = plasma protein binding, mouse; settings: in vitro at 1-50 µM
[9] = 28 day oral toxicology study, dog; settings: for Salient Pathology Findings: 1 month dog (po)
[10] = Human plasma protein binding (PPB); settings: plasma
[11] = CV dog telemetry (single dose, iv); settings: for Cmax: plasma
[12] = comparative haematology analysis in the rat, oral dosing; settings: for AUC: Han Wistar, in vivo, po; for AUC / haematology versus vehicle control: rat; for haematology versus vehicle control: 28 d
[13] = 11640 tested, ref 2 (supplement)
[14] = both, beagle, dog, plasma, po, 100 mg/kg/day
[15] = both, beagle, dog, plasma, po, 200 mg/kg/day
[16] = both, beagle, dog, plasma, po, 500 mg/kg/day

Chain of S. aureus DNA gyrase (P0A0K8 whole entry): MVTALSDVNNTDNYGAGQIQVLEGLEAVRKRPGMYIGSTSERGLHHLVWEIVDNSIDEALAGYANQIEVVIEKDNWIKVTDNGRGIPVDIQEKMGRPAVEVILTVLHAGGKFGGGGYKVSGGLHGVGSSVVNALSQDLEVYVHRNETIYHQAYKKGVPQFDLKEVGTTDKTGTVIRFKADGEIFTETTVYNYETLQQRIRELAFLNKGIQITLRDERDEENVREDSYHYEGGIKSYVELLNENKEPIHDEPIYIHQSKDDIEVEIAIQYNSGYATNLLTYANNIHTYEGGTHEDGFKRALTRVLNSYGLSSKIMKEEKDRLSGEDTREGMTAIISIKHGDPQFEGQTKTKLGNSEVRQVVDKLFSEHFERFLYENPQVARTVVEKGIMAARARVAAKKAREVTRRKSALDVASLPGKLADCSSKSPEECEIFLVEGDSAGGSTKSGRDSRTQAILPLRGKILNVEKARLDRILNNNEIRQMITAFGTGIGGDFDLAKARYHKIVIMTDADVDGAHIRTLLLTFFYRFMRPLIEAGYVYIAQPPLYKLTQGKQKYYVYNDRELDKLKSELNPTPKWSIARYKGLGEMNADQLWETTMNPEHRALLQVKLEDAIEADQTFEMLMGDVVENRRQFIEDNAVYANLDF
Chain of S. aureus DNA gyrase (P20831 whole entry): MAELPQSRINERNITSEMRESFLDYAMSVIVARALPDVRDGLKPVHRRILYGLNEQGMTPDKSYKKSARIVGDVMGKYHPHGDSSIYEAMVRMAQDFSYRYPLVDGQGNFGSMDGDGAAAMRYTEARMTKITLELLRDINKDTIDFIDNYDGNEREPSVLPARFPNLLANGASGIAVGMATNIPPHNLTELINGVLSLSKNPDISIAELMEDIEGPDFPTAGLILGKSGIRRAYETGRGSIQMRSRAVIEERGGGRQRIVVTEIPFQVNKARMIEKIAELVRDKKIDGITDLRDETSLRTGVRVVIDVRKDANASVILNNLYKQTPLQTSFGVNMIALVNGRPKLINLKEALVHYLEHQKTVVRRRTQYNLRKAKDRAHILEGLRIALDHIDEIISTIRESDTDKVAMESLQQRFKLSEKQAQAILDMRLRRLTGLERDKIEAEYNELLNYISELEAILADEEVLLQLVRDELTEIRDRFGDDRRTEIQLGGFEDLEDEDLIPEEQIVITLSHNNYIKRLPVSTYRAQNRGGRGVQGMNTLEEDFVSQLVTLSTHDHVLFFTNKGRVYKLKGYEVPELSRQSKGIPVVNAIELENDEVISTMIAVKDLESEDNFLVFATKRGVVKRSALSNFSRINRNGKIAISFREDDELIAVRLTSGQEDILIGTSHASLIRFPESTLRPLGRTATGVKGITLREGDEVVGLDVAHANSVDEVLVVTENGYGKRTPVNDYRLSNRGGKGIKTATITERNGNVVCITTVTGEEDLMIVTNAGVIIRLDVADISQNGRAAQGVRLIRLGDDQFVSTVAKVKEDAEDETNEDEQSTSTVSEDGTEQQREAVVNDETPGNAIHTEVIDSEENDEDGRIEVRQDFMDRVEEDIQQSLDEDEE

## C[C@@H]1CN2c3c(cc4c(N5C(=O)OC[C@@H]5C)noc4c3F)CC3(C(=O)NC(=O)NC3=O)[C@H]2[C@H](C)O1 [ETX0914]
N. gonorrhoeae ATCC49226
  MIC: N. gonorrhoeae ATCC49226: 0.125 µg/mL (≈ 0.256 µM)
[1]
  MIC: N. gonorrhoeae ARC4676 (QR): 0.125 µg/mL (≈ 0.256 µM)
Dog pharmacokinetics; Beagle dog (male)
  Ka: 1.2 h⁻¹
Dog pharmacokinetics; beagle, dog, plasma
  Dog F: 71%
  clearance: 4 mL/min/kg
Dog pharmacokinetics; plasma, Beagle dog (male), IV 2.5 mg/kg, read-out: Clp (IV)
  clearance: 4 mL/min/kg
Dog pharmacokinetics; plasma, Beagle dog (male), IV 2.5 mg/kg, read-out: T1/2 (IV) (converted)
  half-life: 3 h
Dog pharmacokinetics; plasma, Beagle dog (male), IV 2.5 mg/kg, read-out: Vss (IV)
  Vd: 0.8 L/kg
Dog pharmacokinetics; plasma, Beagle dog (male), IV 2.5 / PO 5 mg/kg
  bioavailability: 71%
Dog pharmacokinetics; plasma, Beagle dog (male), PO 5 mg/kg
  Cmax: 7.1 µM
Dog pharmacokinetics; plasma, Beagle dog (male), PO 5 mg/kg, read-out: T1/2 (PO) (converted)
  half-life: 3.1 h
[2]
  IC50: > 100 µM
[3]
  hepatocyte CLint at 1 µM: 7 µL/min/1e6 cells
[4]; CD-1, plasma, mouse, ABT pre-dosing, read-out: CLp after pre-dosing with 1-aminobenzotriazole (ABT)
  clearance: 15 mL/min/kg
[4]; CD-1 mouse (female)
  Ka: 1.7 h⁻¹
[4]; mouse
  lowering of CLp by ABT pre-dosing: ~5 fold
[4]; plasma, CD-1 mouse (female), IV 3 mg/kg, read-out: Clp (IV)
  clearance: 70 mL/min/kg
[4]; plasma, CD-1 mouse (female), IV 3 mg/kg, read-out: T1/2 (IV) (converted)
  half-life: 0.5 h
[4]; plasma, CD-1 mouse (female), IV 3 mg/kg, read-out: Vss (IV)
  Vd: 3.6 L/kg
[4]; plasma, CD-1 mouse (female), IV 3 / PO 10 mg/kg
  bioavailability: 46%
[4]; plasma, CD-1 mouse (female), PO 10 mg/kg
  Cmax: 1.7 µM
[4]; plasma, CD-1 mouse (female), PO 10 mg/kg, read-out: T1/2 (PO) (converted)
  half-life: 1.6 h
[5]; IV 2.5 mg/kg, read-out: Clp (IV)
  clearance: 12 mL/min/kg
[5]; IV 2.5 mg/kg, read-out: T1/2 (IV) (converted)
  half-life: 1.6 h
[5]; IV 2.5 mg/kg, read-out: Vss (IV)
  Vd: 1.3 L/kg
[5]; IV 2.5 / PO 5 mg/kg
  bioavailability: 58%
[5]; PO 5 mg/kg
  Cmax: 6.5 µM
[5]; PO 5 mg/kg, read-out: T1/2 (PO) (converted)
  half-life: 1.6 h
[6]
  PPB (%free): 19.1±1.1 %free
[7]
  PPB (%free): 18.4±0.3 %free
USA100 NRS382
  MIC: 0.125 µg/mL (≈ 0.256 µM)
S. aureus DNA gyrase
  re-ligation of inhibitor-induced cleaved DNA on removal of Mg2+: re-ligation remained blocked
S. aureus DNA gyrase; listed as AZD0914
  re-ligation of inhibitor-induced cleaved DNA on removal of Mg2+: No ligation is observed
Staphylococcus aureus; [13]
  MIC90: 0.25^2 µg/ml
  MIC Range: ≤ 0.008 to 0.5 µg/mL
Staphylococcus aureus; Table 2
  MIC90, skin infection (S. aureus): 0.25 µg/mL (≈ 0.513 µM)
Streptococcus agalactiae
  MIC90: 0.25^2 µg/ml
  MIC Range: 0.03 to 0.5 µg/mL
Streptococcus pneumoniae
  MIC90: 0.25^2 µg/ml
  MIC Range: ≤ 0.015 to 0.5 µg/mL
Moraxella catarrhalis
  MIC90: 0.25^2 µg/ml
  MIC Range: 0.015 to 0.5 µg/mL
physchem
  solubility: 390 µM (≈ 190 µg/mL)
S. aureus
  frequency of resistance: < 1.1 × 10^−9
[8]
  PPB (%free): 22.1 %free
[8]; listed as AZD0914
  PPB (%free): 22.1±0.3 %free
[9]; 200 mg/kg/day
  Salient Pathology Findings: Testes tubular degeneration partially reversible 3 months post dosing
[9]; 500 mg/kg/day
  Salient Pathology Findings: As above plus: Epididymis cellular debris Caecum/illium/rectum necrosis
[9]; both, beagle, dog, in vivo, po
  NOAEL at 28 days: 100 mg/kg and 100 mg/kg/day
[9]; both, beagle, dog, in vivo, po, 100 mg/kg
  Cmax: 85 µg/mL
[9]; [14]
  AUC: 870 ± 240 µg·h/mL
  Cmax: 90 ± 22 µg/mL
[9]; [15]
  AUC: 2160 ± 460 µg·h/mL
  Cmax: 210 ± 18 µg/mL
[9]; [16]
  AUC: 2780 ± 1140 µg·h/mL
  Cmax: 220 ± 94 µg/mL
[9]; dog
  haematology or platelet count at the NOAEL: no significant changes in haematology or platelet count
[9]; dog, 500 mg/kg/day
  finding at highest dose tested: tachycardia was observed
[9]; dog, oral gavage, 28 days
  tolerated dose: 500 mg/kg/day
[10]
  fraction unbound: 0.17
[11]; CV dog telemetry, single dose, iv
  NOEL: 50 mg/kg/day
[11]; IV telemetry dog study, 100 mg/kg
  cardiovascular effects: decreases in blood pressure, contractility and PR interval and an increase in the heart rate
[11]; dog
  other ECG intervals: no changes to other ECG intervals including QTc or QRS
[11]; dog, iv, 50 mg/kg
  Cmax: 63 µg/mL
[11]; dog, iv, 100 mg/kg
  Cmax: 160 µg/mL
[11]; single dose iv, 100 mg/kg
  Salient Pathology Findings: Emesis Increase in cardiac contractility\relaxation and heart rate Decrease in systolic & diastoloic blood pressure Orthostatic hypertension
[12]; 200 mg/kg
  AUC: 1100 ± 130 µM·h
[12]; 500 mg/kg
  AUC: 2460 ± 470 µM·h
[12]; 1000 mg/kg
  AUC: 3820 ± 650 µM·h
[12]; data not shown
  platelet count: no significant changes in platelet count
[12]; 2 lower doses (200, 500 mg/kg)
  haematology versus vehicle control: within statistical equivalence of the vehicle control
[12]; highest dose (1000 mg/kg)
  haematology versus vehicle control: statistical elevation in reticulocytes, lymphocytes and white blood cells
